Test results as given in patent publication US20230277519A1, “IRAK4 DEGRADERS AND USES THEREOF” (Kymera Therapeutics, Inc., priority 2022, published 2023).

What was measured:
Aiolos [1] = target: T1, Aiolos (Homo sapiens, UniProt Q9UKT9); assay: Aiolos degradation in tumor by targeted MS (Phase 1a); format: in vivo; conditions: patients, IV, DL1, targeted MS
T1 construct: from tissue; host or cells: tumor tissue of R/R B-cell NHL patients
Protocol: (§1) In some embodiments, the present disclosure provides a method of administering Compound A to a patient in need thereof, comprising administering to said patient a therapeutically effective amount of Compound A or a pharmaceutically acceptable salt thereof (e.g., in a liquid formulation or a unit dose form as described herein), wherein greater than 60%, 70%, 80%, or 90% of Aiolos degradation in blood or tumor is achieved (e.g., by measuring, at 48 hours post-administration, Aiolos levels using mass spectrometry or lymphocytes and monocytes using flow cytometry).
(§2) Patients who provide informed consent and meet the eligibility criteria for the study will be enrolled and treated with Compound A administered intravenously (IV) on Day 1 of a 21-day schedule (Schedule 1). An alternative schedule of Compound A administered IV on Day 1 and Day 2 of a 21-day schedule (Schedule 2) may also be evaluated based on emerging pharmacokinetic, pharmacodynamic, and safety data observed in Schedule 1. If Schedule 2 is investigated, the first dose level will represent a split dose of the highest dose previously determined to be tolerable in Schedule 1 with the total dose administered in Schedule 2 being equivalent to the total dose administered in Schedule 1. Subsequent dose levels for Schedule 2 will follow the same dose escalation scheme as described for Schedule 1. […]

Aiolos [2] = target: T1, Aiolos; assay: Aiolos degradation in blood by PBMC FLOW (Phase 1a); format: in vivo; conditions: patients with R/R B-cell NHL, IV, DL1 and DL2, PBMC FLOW
Protocol: as §1, §2

Ikaros [3] = target: T2, Ikaros (Homo sapiens, UniProt Q13422); assay: Ikaros degradation in tumor by targeted MS (Phase 1a); format: in vivo; conditions: patients, IV, DL1, targeted MS
T2 construct: from tissue; host or cells: tumor tissue of R/R B-cell NHL patients
T2 sequence (Q13422 whole entry): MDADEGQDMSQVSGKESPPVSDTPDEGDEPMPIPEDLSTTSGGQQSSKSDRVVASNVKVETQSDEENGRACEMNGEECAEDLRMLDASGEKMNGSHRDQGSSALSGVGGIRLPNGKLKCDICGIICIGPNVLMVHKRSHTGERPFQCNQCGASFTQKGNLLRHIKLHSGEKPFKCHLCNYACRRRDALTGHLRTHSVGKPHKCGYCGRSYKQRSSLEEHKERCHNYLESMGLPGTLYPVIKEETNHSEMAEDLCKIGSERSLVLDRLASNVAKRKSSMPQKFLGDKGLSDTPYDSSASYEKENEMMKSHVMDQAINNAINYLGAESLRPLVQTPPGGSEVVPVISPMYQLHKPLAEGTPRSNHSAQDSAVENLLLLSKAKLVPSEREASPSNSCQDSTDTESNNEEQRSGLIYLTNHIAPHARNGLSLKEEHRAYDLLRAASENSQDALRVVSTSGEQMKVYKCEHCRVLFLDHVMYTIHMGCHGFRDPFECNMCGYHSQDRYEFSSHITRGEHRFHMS
Protocol: as §1, with “than 40%, 50%,” for “than”, “Ikaros” for “Aiolos”
as §2

IRAK4 [4] = target: T3, IRAK4 (Homo sapiens, UniProt Q9NWZ3); assay: IRAK4 degradation in tumor by targeted MS (Phase 1a); format: in vivo; conditions: patients, IV, DL1, targeted MS
T3 construct: from tissue; host or cells: tumor tissue of R/R B-cell NHL patients
T3 sequence (Q9NWZ3 1-460): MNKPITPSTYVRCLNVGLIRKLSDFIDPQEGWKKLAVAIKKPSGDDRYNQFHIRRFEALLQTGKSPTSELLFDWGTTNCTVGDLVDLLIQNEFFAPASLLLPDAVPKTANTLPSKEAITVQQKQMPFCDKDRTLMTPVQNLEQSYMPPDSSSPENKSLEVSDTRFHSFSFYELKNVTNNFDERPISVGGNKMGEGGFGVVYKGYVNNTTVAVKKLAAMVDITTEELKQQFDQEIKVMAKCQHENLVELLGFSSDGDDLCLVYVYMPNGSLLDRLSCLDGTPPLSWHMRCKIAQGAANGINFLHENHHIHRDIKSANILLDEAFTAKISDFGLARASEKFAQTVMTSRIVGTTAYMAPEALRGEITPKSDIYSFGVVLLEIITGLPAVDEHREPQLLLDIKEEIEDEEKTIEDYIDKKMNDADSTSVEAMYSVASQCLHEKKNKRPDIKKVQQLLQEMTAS
Protocol: as §1, with “great” for “greater”, “than 30%, 40%, 50%,” for “than”, “IRAK4” for “Aiolos”
as §2

IRAK4 [5] = target: T3, IRAK4; assay: IRAK4 degradation in blood by PBMC FLOW (Phase 1a); format: in vivo; conditions: patients with R/R B-cell NHL, IV, DL1 and DL2, PBMC FLOW
Protocol: as §1, with “great” for “greater”, “than 30%, 40%, 50%,” for “than”, “IRAK4” for “Aiolos”
as §2

[6] = Plasma concentration and PK in patients (Phase 1a); format: in vivo, human; conditions: IV, DL1 and DL2, plasma
Excerpt: (§3) Patients who provide informed consent and meet the eligibility criteria for the study will be enrolled and treated with Compound A administered intravenously (IV) on Day 1 of a 21-day schedule (Schedule 1). An alternative schedule of Compound A administered IV on Day 1 and Day 2 of a 21-day schedule (Schedule 2) may also be evaluated based on emerging pharmacokinetic, pharmacodynamic, and safety data observed in Schedule 1. If Schedule 2 is investigated, the first dose level will represent a split dose of the highest dose previously determined to be tolerable in Schedule 1 with the total dose administered in Schedule 2 being equivalent to the total dose administered in Schedule 1. Subsequent dose levels for Schedule 2 will follow the same dose escalation scheme as described for Schedule 1. If the sponsor and investigators determine that, based on the observed safety, PK, preliminary efficacy, and/or the PD profile, Schedule 2 may not be beneficial to patients, then the study will proceed immediately to Phase 1b after the Schedule 1 MTD/RP2D is determined and Schedule 2 may not be evaluated. • Schedule 1: Dose D1 on a 21-day schedule • Schedule 2: Dose D1, D2 on a 21-day schedule

[7] = test system: IRAK4, Ikaros, and Aiolos; assay: Duration of target degradation in patients (Phase 1a); format: in vivo, human; conditions: once every three-week dosing
Excerpt: as §3

Ikaros [8] = target: T2, Ikaros; assay: Ikaros degradation in blood by PBMC FLOW (Phase 1a); format: in vivo; conditions: patients with R/R B-cell NHL, IV, DL1 and DL2, PBMC FLOW
Protocol: as §1, with “than 40%, 50%,” for “than”, “Ikaros” for “Aiolos”
as §2

T1 sequence (Q9UKT9 whole entry): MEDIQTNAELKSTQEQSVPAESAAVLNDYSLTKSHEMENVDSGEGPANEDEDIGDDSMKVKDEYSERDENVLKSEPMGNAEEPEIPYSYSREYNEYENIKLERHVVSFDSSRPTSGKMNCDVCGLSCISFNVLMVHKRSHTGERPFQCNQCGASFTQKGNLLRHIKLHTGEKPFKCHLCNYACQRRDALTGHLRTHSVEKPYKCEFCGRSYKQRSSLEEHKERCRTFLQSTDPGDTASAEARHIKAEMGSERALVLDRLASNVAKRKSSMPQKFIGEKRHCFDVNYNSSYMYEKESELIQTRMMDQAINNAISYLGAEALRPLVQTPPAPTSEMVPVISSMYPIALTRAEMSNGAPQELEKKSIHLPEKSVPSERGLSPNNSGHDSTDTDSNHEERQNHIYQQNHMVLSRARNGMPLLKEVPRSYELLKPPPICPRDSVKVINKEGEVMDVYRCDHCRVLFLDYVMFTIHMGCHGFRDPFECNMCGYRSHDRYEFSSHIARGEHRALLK

## CC(C)(O)c1cc2nc([C@H]3CC[C@H](CN4CC5(CC(CCNc6cccc7c6C(=O)N(C6CCC(=O)NC6=O)C7=O)C5)C4)CC3)sc2cc1NC(=O)c1cccc(C(F)(F)F)n1 (some centres unmarked) [Compound A]
Aiolos [1]
  Aiolos KD in tumor: 40-66%
Aiolos [2]
  KD of Aiolos in PBMC: ≤ 95%
Ikaros [3]
  Ikaros KD in tumor: 40-66%
IRAK4 [4]
  IRAK4 KD in tumor: 27%
IRAK4 [5]
  IRAK4 degradation in PBMC: Up to 40%
[6]
  Exposure (plasma concentration and PK): dose-proportional increase in exposure
[7]
  Duration of target degradation: At least 72 h
Ikaros [8]
  KD of Ikaros in PBMC: ≤ 95%
